Assay results as given in patent US8288438B2, “Methods for avoiding edema in the treatment or prevention of PPARγ-responsive diseases, including cancer” (Metabolex, Inc., priority 2005, dated 2012).

Key:
C57BL/6j ob/ob Mice [1] = assay: anti-diabetic activities in the C57BL/6j ob/ob Mice model (Example 13); format: in vivo; conditions: for Insulin Level compared with vehicle: ob/ob mice, oral gavage; for Potency (glucose lowering): oral gavage once a day for 1-4 days, 5 to 125 mg/kg, plasma glucose 6 hours after dose
Protocol: (§1) The anti-diabetic activities of the compounds were evaluated in the C57BL/6j ob/ob Mice model.
Male, 7-9 weeks old, C57BL/6J ob/ob mice were purchased from The Jackson Laboratory (Bar Harbor, Me., USA). Animals were housed (4-5 mice/cage) under standard laboratory conditions at 22±3° C. temperature and 50±20% relative humidity, and were maintained on a diet of Purina rodent chow and water ad libitum. Prior to treatment, blood was collected from the tail vein of each animal. Mice that had non-fasting plasma glucose levels between 250 and 500 mg/dl were used. Each treatment group consisted of 8-10 mice that were distributed so that the mean glucose levels were equivalent in each group at the start of the study. Mice were dosed orally by gavage once a day for 1-4 days with vehicle and one or more dose of test compound at a dose ranging from 5 to 125 mg/kg. compounds were delivered in a liquid formulation containing 5% (v/v) dimethyl sulfoxide (DMSO), 1% (v/v) Tween 80 (and 0.9% (w/v) methylcellulose. The gavage volume was 10 ml/kg. […] Food intake and body weight were measured daily. […] Louis, Mo., USA). Significant difference between groups (comparing drug-treated to vehicle-treated) was evaluated using the Student unpaired t-test. […]

C57BL/6j ob/ob Mice [2] = assay: anti-diabetic activities in the C57BL/6j ob/ob Mice model (Example 20); format: in vivo; conditions: for minimal effective dose: Mus musculus, oral gavage once a day for 1-4 days, plasma glucose 6 hours after dose, read-out: Potency (glucose lowering); for Insulin Level compared with vehicle: ob/ob mice, oral gavage
Protocol: as §1
Male, 7-9 weeks old, C57BL/6J ob/ob mice were purchased from The Jackson Laboratory (Bar Harbor, Me., USA). Animals were housed (4-5 mice/cage) under standard laboratory conditions at 22±3° C. temperature and 50±20% relative humidity, and were maintained on a diet of Purina rodent chow and water ad libitum. Prior to treatment, blood was collected from the tail vein of each animal. Mice that had non-fasting plasma glucose levels between 250 and 500 mg/dl were used. Each treatment group consisted of 8-10 mice that were distributed so that the mean glucose levels were equivalent in each group at the start of the study. Mice were dosed orally by gavage once a day for 1-4 days with vehicle and one or more dose of test compound at a dose ranging from 5 to 125 mg/kg. compounds were delivered in a liquid formulation containing 5% (v/v) dimethyl sulfoxide (DMSO), 1% (v/v) Tween 80® and 0.9% (w/v) methylcellulose. The gavage volume was 10 ml/kg. Blood samples were taken at 6 hours after the each dose and analyzed for plasma glucose. Food intake and body weight were measured daily. Plasma glucose concentrations were determined colorimetrically using a commercial glucose oxidase method (Sigma Chemical Co, St. Louis, Mo., USA). Significant difference between groups (comparing drug-treated to vehicle-treated) was evaluated using the Student unpaired t-test.

O=C(O)C(Oc1ccc(C(F)(F)F)cc1-c1nc2ccccc2o1)c1ccccc1 (stereo not shown) [Compound I-369]
Insulin Level compared with vehicle (C57BL/6j ob/ob Mice [1]): Lower | Potency (glucose lowering) (C57BL/6j ob/ob Mice [1]): +++ (effective for glucose lowering at a dose of ≦25 mg/kg)

CC(Oc1ccc(C(F)(F)F)cc1)(C(=O)O)c1ccc(C(F)(F)F)cc1 (stereo not shown) [Compound 121, 2-(4-Trifluoromethyl-phenoxy)-2-(4-trifluoromethyl-phenyl)-propionic acid]
minimal effective dose (C57BL/6j ob/ob Mice [2]): ≤ 125 mg/kg | Insulin Level compared with vehicle (C57BL/6j ob/ob Mice [2]): Lower

O=C(O)C(Oc1ccc(C(F)(F)F)cc1)c1ccc(C(F)(F)F)cc1 (stereo not shown) [Compound 83]
minimal effective dose (C57BL/6j ob/ob Mice [2]): ≤ 125 mg/kg | Insulin Level compared with vehicle (C57BL/6j ob/ob Mice [2]): Lower

O=C(O)C(Oc1ccc(C(F)(F)F)cc1)c1cccc(C(F)(F)F)c1 (racemic) [Compound 39, (4-trifluoromethyl-phenoxy)-(3-trifluoromethyl-phenyl)acetic acid]
Insulin Level compared with vehicle (C57BL/6j ob/ob Mice [2]): Lower

O=C(O)C(Oc1ccc(C(F)(F)F)cc1-c1nc2ccccc2o1)c1cccc(C(F)(F)F)c1 (racemic) [Compound I-89]
Insulin Level compared with vehicle (C57BL/6j ob/ob Mice [1]): Lower | Potency (glucose lowering) (C57BL/6j ob/ob Mice [1]): +++ (effective for glucose lowering at a dose of ≦25 mg/kg)

O=C(O)C(Oc1ccc(C(F)(F)F)cn1)c1cccc(C(F)(F)F)c1 (stereo not shown) [Compound 100, (3-Trifluoromethyl-phenyl)-(5-trifluoromethyl-pyridin-2-yloxy)-acetic acid]
minimal effective dose (C57BL/6j ob/ob Mice [2]): ≤ 125 mg/kg | Insulin Level compared with vehicle (C57BL/6j ob/ob Mice [2]): Lower

O=C(O)C(Oc1ccc(C(F)(F)F)cc1-c1nc2ccccc2o1)c1ccccc1 (racemic) [Compound I-92]
Insulin Level compared with vehicle (C57BL/6j ob/ob Mice [1]): Lower | Potency (glucose lowering) (C57BL/6j ob/ob Mice [1]): +++ (effective for glucose lowering at a dose of ≦25 mg/kg)

OCC(Oc1ccc(C(F)(F)F)cc1)c1ccc(C(F)(F)F)cc1 (stereo not shown) [Compound 128]
minimal effective dose (C57BL/6j ob/ob Mice [2]): ≤ 125 mg/kg | Insulin Level compared with vehicle (C57BL/6j ob/ob Mice [2]): Lower

O=C(O)C(Oc1cc(C(F)(F)F)cc(C(F)(F)F)c1)c1ccc(C(F)(F)F)cc1 (stereo not shown) [Compound 81]
minimal effective dose (C57BL/6j ob/ob Mice [2]): ≤ 125 mg/kg | Insulin Level compared with vehicle (C57BL/6j ob/ob Mice [2]): Lower

O=C(O)C(Oc1ccc(C(F)(F)F)cc1)c1cccc(C(F)(F)F)c1 (single isomer, unassigned; (-)) [(−)-39, (4-trifluoromethyl-phenoxy)-(3-trifluoromethyl-phenyl)acetic acid]
minimal effective dose (C57BL/6j ob/ob Mice [2]): ≤ 125 mg/kg | Insulin Level compared with vehicle (C57BL/6j ob/ob Mice [2]): Lower

O=C(O)C(Oc1ccc(Cl)cc1-c1nc2ccccc2o1)c1ccc(Cl)cc1 (racemic) [Compound I-190]
Insulin Level compared with vehicle (C57BL/6j ob/ob Mice [1]): Lower | Potency (glucose lowering) (C57BL/6j ob/ob Mice [1]): +++ (effective for glucose lowering at a dose of ≦25 mg/kg)

O=C(O)C(Oc1ccc(Cl)cc1-c1nc2ccccc2o1)c1cccc(Cl)c1 (racemic) [Compound I-194]
Insulin Level compared with vehicle (C57BL/6j ob/ob Mice [1]): Lower | Potency (glucose lowering) (C57BL/6j ob/ob Mice [1]): +++ (effective for glucose lowering at a dose of ≦25 mg/kg)

CC(Oc1ccc(C(F)(F)F)cc1)(C(=O)O)c1cccc(C(F)(F)F)c1 (stereo not shown) [Compound 120, 2-(4-trifluoromethyl-phenoxy)-2-(3-trifluoromethyl-phenyl)propionic acid]
minimal effective dose (C57BL/6j ob/ob Mice [2]): ≤ 125 mg/kg | Insulin Level compared with vehicle (C57BL/6j ob/ob Mice [2]): Lower

CC(=O)NCCOC(=O)C(Oc1ccc(C(F)(F)F)cc1)c1ccc(C(F)(F)F)cc1 (stereo not shown) [Compound 145]
minimal effective dose (C57BL/6j ob/ob Mice [2]): ≤ 125 mg/kg | Insulin Level compared with vehicle (C57BL/6j ob/ob Mice [2]): Lower

COc1ccc(C(Oc2ccc(Cl)cc2-c2nc3ccccc3o2)C(=O)O)cc1 (racemic) [Compound I-193]
Insulin Level compared with vehicle (C57BL/6j ob/ob Mice [1]): Lower | Potency (glucose lowering) (C57BL/6j ob/ob Mice [1]): +++ (effective for glucose lowering at a dose of ≦25 mg/kg)

CC(Oc1ccc(C(F)(F)F)cc1-c1nc2ccccc2o1)(C(=O)O)c1ccccc1 (stereo not shown) [Ia-365]
Insulin Level compared with vehicle (C57BL/6j ob/ob Mice [1]): Lower | Potency (glucose lowering) (C57BL/6j ob/ob Mice [1]): +++ (effective for glucose lowering at a dose of ≦25 mg/kg)

CC(=O)NCCOC(=O)C(Oc1ccc(C(F)(F)F)cc1)c1cccc(C(F)(F)F)c1 (stereo not shown) [Compound 136, (4-trifluoromethyl-phenoxy)-(3-trifluoromethyl-phenyl)-acetic acid 2-acetylamino-ethyl ester]
minimal effective dose (C57BL/6j ob/ob Mice [2]): ≤ 125 mg/kg | Insulin Level compared with vehicle (C57BL/6j ob/ob Mice [2]): Lower

CC(=O)NCCOC(=O)C(Oc1ccccc1C(F)(F)F)c1ccc(C(F)(F)F)cc1 (stereo not shown) [Compound 146]
minimal effective dose (C57BL/6j ob/ob Mice [2]): > 125 mg/kg | Insulin Level compared with vehicle (C57BL/6j ob/ob Mice [2]): Lower

O=C(O)C(Oc1ccccc1-c1nc2ccccc2o1)c1cccc(C(F)(F)F)c1 (racemic) [Compound I-3]
Insulin Level compared with vehicle (C57BL/6j ob/ob Mice [1]): Lower | Potency (glucose lowering) (C57BL/6j ob/ob Mice [1]): + (effective for glucose lowering at the dose of ≧125 mg/kg)

CC(=O)NCCOC(=O)C(Oc1cccc(C(F)(F)F)c1)c1ccc(C(F)(F)F)cc1 (stereo not shown) [Compound 142]
minimal effective dose (C57BL/6j ob/ob Mice [2]): ≤ 125 mg/kg | Insulin Level compared with vehicle (C57BL/6j ob/ob Mice [2]): Lower

O=C(O)C(Oc1ccc(C(F)(F)F)cc1Cl)c1ccc(C(F)(F)F)cc1 (stereo not shown) [Compound 89]
minimal effective dose (C57BL/6j ob/ob Mice [2]): ≤ 125 mg/kg | Insulin Level compared with vehicle (C57BL/6j ob/ob Mice [2]): Lower

O=C(O)C(Oc1ccc(Cl)cc1-c1nc2ccccc2o1)c1cccc(C(F)(F)F)c1 (racemic) [Compound I-191]
Insulin Level compared with vehicle (C57BL/6j ob/ob Mice [1]): Lower | Potency (glucose lowering) (C57BL/6j ob/ob Mice [1]): +++ (effective for glucose lowering at a dose of ≦25 mg/kg)

CC(Oc1ccc(C(F)(F)F)cc1-c1nc2ccccc2o1)(C(=O)O)c1ccccc1 (stereo not shown) [Ia-366]
Insulin Level compared with vehicle (C57BL/6j ob/ob Mice [1]): Lower

O=C(O)C(Oc1ccc(C(F)(F)F)cc1Cl)c1cccc(C(F)(F)F)c1 (stereo not shown) [Compound 85]
minimal effective dose (C57BL/6j ob/ob Mice [2]): ≤ 125 mg/kg | Insulin Level compared with vehicle (C57BL/6j ob/ob Mice [2]): Lower

CC(=O)NCCOC(=O)C(Oc1cc(C(F)(F)F)cc(C(F)(F)F)c1)c1ccc(C(F)(F)F)cc1 (stereo not shown) [Compound 143]
minimal effective dose (C57BL/6j ob/ob Mice [2]): ≤ 125 mg/kg | Insulin Level compared with vehicle (C57BL/6j ob/ob Mice [2]): Lower

O=C(O)C(Oc1ccc(C(F)(F)F)cc1-c1nc2ccccc2o1)c1ccc(Cl)cc1 (single isomer, unassigned) [Compound I-372]
Insulin Level compared with vehicle (C57BL/6j ob/ob Mice [1]): Lower | Potency (glucose lowering) (C57BL/6j ob/ob Mice [1]): +++ (effective for glucose lowering at a dose of ≦25 mg/kg)

CC(=O)NCCOC(=O)C(Oc1cccc(C(F)(F)F)c1)c1ccccc1C(F)(F)F (stereo not shown) [Compound 147]
minimal effective dose (C57BL/6j ob/ob Mice [2]): > 125 mg/kg | Insulin Level compared with vehicle (C57BL/6j ob/ob Mice [2]): Lower

O=C(O)C(Oc1cccc(C(F)(F)F)c1)c1ccc(C(F)(F)F)cc1 (stereo not shown) [Compound 86]
minimal effective dose (C57BL/6j ob/ob Mice [2]): ≤ 125 mg/kg | Insulin Level compared with vehicle (C57BL/6j ob/ob Mice [2]): Lower

CC(=O)NCCOC(=O)C(Oc1cccc(C(F)(F)F)c1)c1cccc(C(F)(F)F)c1 (stereo not shown) [Compound 144]
minimal effective dose (C57BL/6j ob/ob Mice [2]): ≤ 125 mg/kg | Insulin Level compared with vehicle (C57BL/6j ob/ob Mice [2]): Lower

O=C(O)C(Oc1ccccc1-c1nc2ccccc2o1)c1ccc(Cl)cc1 (racemic) [Compound I-1]
Insulin Level compared with vehicle (C57BL/6j ob/ob Mice [1]): Lower | Potency (glucose lowering) (C57BL/6j ob/ob Mice [1]): ++ (effective for glucose lowering at a dose of >25 mg/kg but <125 mg/kg)
